According to article PMC5754413, “Mass balance, metabolic disposition, and pharmacokinetics of a single oral dose of regorafenib in healthy human subjects” (Cancer Chemotherapy and Pharmacology, 2017):

Legend:
human feces = assay: Incubation with human feces under anaerobic conditions; assay type: in vitro ADME; conditions: anaerobic conditions, ex vivo
Method: Under anaerobic conditions, a suspension of fresh human feces (about 0.5 g) in degassed water (final volume 5 mL) was treated with a solution of [^14C]-labelled metabolite M-2 or metabolite M-7 (1 mg/mL acetonitrile; final concentration: 10 μM). After incubation for 24 h at 37 °C, the incubation mixture was terminated by the addition of acetonitrile (2 mL). After centrifugation (5 min, 3000 rpm), the supernatant (25 μL) was directly subjected to HPLC with the respective off-line radioactivity detection. As negative controls, metabolites M-2 and M-7 were incubated in water for 24 h at 37 °C.

[1] = Safety assessments in healthy male subjects; assay type: in vivo, human; conditions: single 120 mg dose, four subjects
Method: Blood pressure, pulse rate, electrocardiogram, physical examination, urine drug screening, and adverse events were evaluated throughout the study. The investigator obtained and recorded all the observed or reported adverse events, the severity (mild, moderate, or severe) of the events, and the relationship to study drug (in the investigator’s opinion).

[2] = Mass balance: urinary and fecal excretion of radioactivity and metabolite pattern in excreta; assay type: in vivo, human
Method: Urine: Urine samples were collected at 12-h intervals post-dose on Day 1 and then at 24-h intervals until 288 h post-dose. Urine was stored at 4 °C until it was divided into aliquots for LSC and subsequent metabolite profiling (aliquots were stored at − 20 °C).
Feces: Fecal samples were collected and homogenized in water on a daily basis until 12 days post-dose. Duplicate aliquots of the homogenates were taken for combustion with oxygen (in preparation for LSC), and separate aliquots were used for metabolite profiling.
Liquid samples: Duplicate aliquots of liquid samples were diluted with 1 mL distilled water, if necessary, and mixed with 10 mL Aquasafe 500 Plus scintillation fluid. Levels of radioactivity were measured by LSC (PerkinElmer 2100) with automatic quench correction by an external standard channel ratio method at 13 °C using Ultima Gold™ as the liquid scintillation cocktail. Lower limits of detection (LLOD) were 30 μg-Eq/L for plasma (sample volume 0.5 mL), 50 μg-Eq/L for whole blood (sample volume 0.3 mL), and 0.016 μg-Eq/g for urine (sample weight 1 g).
Fecal samples: Duplicate aliquots of fecal homogenate (about 0.3 g) were weighed into Combustocones® containing Combustopads® for combustion analysis. Samples were combusted using a Packard Tri-Carb 307 Automatic Sample Oxidizer. The resultant ^14CO2 generated was collected by absorption in Carbo-Sorb (8 mL) to which Permafluor E+ (10 mL) was added. Radioactivity was quantified using a liquid scintillation analyzer (PerkinElmer 2100), with automatic quench correction using an external standard method as urine sample analysis. Samples were allowed to stabilize with respect to heat and light, and each sample was analyzed for 5 min. Prior to calculation of individual results, a background count rate was determined and subtracted from each sample’s count rate. LOD was 0.05 μg-Eq/g (sample weight 0.3 g).
Due to the limited amount of radiocarbon associated with many of the samples, analyses were conducted using HPLC with fraction collection followed by off-line LSC. Samples were analyzed on a 150 × 3 mm Prodigy® ODS-3 100A, 3 µm column (Phenomenex, Aschaffenburg, Germany) protected by 8 × 3 mm Nucleosil® 100-3 C18 HD guard columns (Macherey–Nagel, Düren, Germany). Metabolites were separated with a gradient of aqueous potassium dihydrogen phosphate (1 g/L, pH 2.0, mobile phase A) versus acetonitrile (mobile phase B) at a flow rate of 0.5 mL/min (gradient: 0% B at 0 min, linear to 50% B at 10 min, linear to 60% B at 25 min, linear to 80% B at 26 min, plateau at 80% B to 30 min). The radiochemical profile of [^14C]regorafenib-derived radioactivity was determined for all urine samples, plasma extracts, and fecal homogenate extracts. Here, HPLC fractionation into 96-well plates was followed by off-line LSC (Wallac 1450 MicroBeta liquid scintillation analyzer) after adding 150 μL of scintillation cocktail to each well (Ultima-Flo™ AP, PerkinElmer; sampling rate: 10 s/well) using the Wallac 1450 Microbeta™ Plusliquid detector. Reconstructed radiochemical profiles were compiled from the resulting data.

[3] = range between subjects, percent of administered dose

## CNC(=O)c1cc(Oc2ccc(NC(=O)Nc3ccc(Cl)c(C(F)(F)F)c3)c(F)c2)ccn1 [Regorafenib, 4-[4-({[4-chloro-3-(trifluoromethyl)phenyl]carbamoyl}amino)-3-fluorophenoxy]-N-methylpyridine-2-carboxamide]
Human feces
  Stability in feces / toward gut flora: stable
[1]
  Electrocardiograms, laboratory investigations, and vital signs: no clinically relevant changes
[1]; event considered unrelated to study drug
  Treatment-emergent adverse events: mild, non-serious headache
[2]; in vivo
  Dose renally excreted after 96 h: less than 3%
[2]; mean, percent of dose
  Cumulative renal excretion by 96 h: 16.6%
[2]; mean, total radioactivity
  Excretion in feces within 8 days: 67.7%
  Excretion in feces within the first 4 days: 46.3%
[2]; [3]
  Radioactivity eliminated in feces, range: 68.3–76.3%
  Radioactivity excreted via urine, range: 16.2–24.7%
